By EC50 is commonly meant the concentration that produces a half-maximal response.

Experimental findings from paper PMC6563844, “Identification and in vivo Efficacy Assessment of Approved Orally Bioavailable Human Host Protein-Targeting Drugs With Broad Anti-influenza A Activity” (Frontiers in Immunology, 2019) are described below.

Read-outs that look alike come from different tables or passages of the source.

The test system of data set [1] is H1N1 A/Puerto Rico/8/34 (PR8).
Data set [2] relates to PR8. Details: species or system C57BL/6 mice. As to conditions: mouse, in vivo, po.
The test system of data set [3] is H1N1pdm09 (A/Mexico/InDRE4487/2009). Details: species or system ferrets (mustela putorius furo). The following applies: in vivo.
The subject of data set [4] is PR8. Nature of the data set: microbe, parasite or virus in culture. Type of data set: cell-based, influenza A virus.
Data set [5] deals with influenza strains A/Puerto Rico/8/34 (PR8), A/Mexico/InDRE4487/2009 (H1N1pdm09), A/Victoria/36/2011 (H3N2). The class given is cell-based, influenza A virus.
For data set [6], the system named is H1N1 and H3N2 influenza A viruses (PR8, H1N1pdm09, H3N2). Put plainly: microbe, parasite or virus in culture. The class given is cell-based.
The nature of another data set: MTT assay (cytotoxicity). As to conditions: dog. In general terms: Formazan colour is commonly taken as a measure of viable cells.
Data set [7] concerns H3N2 (A/Victoria/36/2011). Put plainly: microbe, parasite or virus in culture. The class given is cell-based, influenza A virus.
In data set [8] the test system is pH1N1 (H1N1pdm09 A/Mexico/InDRE4487/2009). Nature of the data set: microbe, parasite or virus in culture. The class given is cell-based, influenza A virus.
Another data set can be described thus: in vitro. As to conditions: dog.
In another data set the test system is MDCK cells. Nature of the data set: MTT assay (cytotoxicity). The following applies: MDCK cells, 24 h, MTT.
Where [9] appears, read: read-out: EC50 (50% effective dose).

Description for MDCK cells: (§1) The MTT assay was performed according to the manufacturer's protocol (Thermo Fisher Vybrant MTT Cell Proliferation Assay Kit). Briefly, MDCK cells grown in a 96-well-plate were treated with the respective drugs at 5-fold descending concentrations starting at 500 mM or left untreated. After 24 h, medium was replaced by PBS containing 1 mM MTT. After incubation for 4 h at 37°C, supernatants were removed, mixed with DMSO and further incubated for 10 min at 37°C before absorption was measured at 562 nm using a PHOmo Microplate reader. To calculate the relative cytotoxicity, the absorbance of untreated cells was set to 1. The 50% cytotoxic concentration (CC50) was calculated using GraphPad 6, and the selectivity index (SI) represents the ratio of CC50 to EC50.
Description for in vitro: as §1

For the molecule `N=C(N)NC(=O)c1nc(Cl)c(N)nc1N` [Amiloride], in data set [1], the Inhibitory effect result is “No inhibition” and the “antiviral activity in initial screen” value was “no antiviral activity”.

`CCOC(=O)C1=C[C@@H](OC(CC)CC)[C@H](NC(C)=O)[C@@H](N)C1` [Oseltamivir phosphate, oseltamivir phosphate]: in the data set on PR8 [2], the “reduction of lung titers” value was found to be 28 fold. Further, in [3], the clinical score entry is recorded as “minimal clinical score peaking on day 3”. Also, the “reduction in nasal wash titers” value in data set [3] (po) is 10 fold.

With `CCCCC1=NC2(CCCC2)C(=O)N1Cc1ccc(-c2ccccc2-c2nnn[nH]2)cc1` [Irbesartan], in data set [1], the Inhibitory effect result is listed as “toxic”, the antiviral activity result is on record as “no antiviral activity” and the “toxicity in the screen” value is given as “pronounced toxicity”.

With `COc1ccc2c(c1)[C@]13CCCC[C@@H]1[C@H](C2)N(C)CC3` [Dextromethorphan], the “effect on lung viral titers” value in the data set with PR8 [2] is on record as “more variable but significant reduction”. The “Inhibitory effect (fold inhibition)” value in data set [1] is >10-fold inhibition. Further, the “antiviral activity in initial screen” value in data set [1] is reported as “able to inhibit infection at doses above 50 μM without causing toxicity”. For the same molecule, the EC50 was 48.7 ± 2.3 µM in the data set with PR8 [4] (Influenza A virus, PR8, MDCK); 5 to 50 µM in data set [6] (setting [9]); 51.7 ± 4.2 µM in data set [7] (Influenza A virus, H3N2, MDCK); 50.8 ± 3.3 µM in data set [8] (Influenza A virus, MDCK, pH1N1). Moreover, the “reduction of viral titers” value in data set [5] was “around 1,000 fold”. This molecule came in with a CC50 at 24 h in the data set “MTT assay (cytotoxicity)” of 3.546 ± 0.0111 mM. In data set [3], the clinical score result is “significantly lower peak score”. This molecule gave a weight loss in data set [3] of under 10%. Also, the body weight effect entry in data set [3] (po) was “slightly increase the weight loss”. The “effect on nasal wash titers” value in data set [3] (po) is given as “no effect”.

Regarding `CN(C)/N=N/c1[nH]cnc1C(N)=O` [Dacarbazine], in data set [1], the Inhibitory effect result is on record as “no inhibition” and the “antiviral activity in initial screen” value is on record as “no antiviral activity”.

For the molecule `CCC(CC)O[C@@H]1C=C(C(=O)O)C[C@H](N)[C@H]1NC(C)=O` [oseltamivir carboxylate], the EC50 was 0.005 µM with PR8 [4] (read-out: EC50) and about 0.2 µM in data set [8]. In addition, in data set [5], the “concentration completely inhibiting replication” value was “higher than 5 μM”.

On to `CC(=O)N[C@@H]1[C@@H](O)[C@H](O)[C@@H](CO)O[C@@H]1O` [N-Acetyl-D-Glucosamine], for which, in data set [1], the Inhibitory effect result was “No inhibition” and the “antiviral activity in initial screen” value was “no antiviral activity”.

For the molecule `O=C1CC[C@@]2(O)[C@H]3Cc4ccc(O)c5c4[C@@]2(CCN3CC2CC2)[C@H]1O5` [Naltrexone], the “effect on lung viral titers” value in the data set on PR8 [2] is “no significant effect”. Also, the “Inhibitory effect (fold inhibition)” value in data set [1] is >10-fold inhibition. In addition, the “antiviral activity in initial screen” value in data set [1] was “able to inhibit infection at doses above 50 μM without causing toxicity”. For the same molecule, the EC50 is 4.7 ± 0.2 µM with PR8 [4] (Influenza A virus, PR8, MDCK); 5 to 50 µM in [6]; over 500 µM in data set [7] (Influenza A virus, H3N2, MDCK); 48 ± 3.2 µM in data set [8] (Influenza A virus, MDCK, pH1N1). Moreover, the “reduction of viral titers” value in data set [5] was 100 fold. The molecule also showed a CC50 at 24 h in the data set “MTT assay (cytotoxicity)” of 5.23 ± 0.227 mM. Further, in [7], the inhibition efficiency entry is on record as “less efficient”.

As to `NCCCC(O)(P(=O)(O)O)P(=O)(O)O` [Alendronate], in [1], the Inhibitory effect entry was “toxic” and the antiviral activity entry is “no antiviral activity”.

As for `Nc1ncnc2c1ncn2[C@@H]1O[C@H](COP(=O)(O)OP(=O)(O)OP(=O)(O)O)[C@@H](O)[C@H]1O` [Adenosine triphosphate], in data set [1], the Inhibitory effect entry is “No inhibition” and the “antiviral activity in initial screen” value is reported as “no antiviral activity”.

Turning to `CC[C@]1(O)C[C@@H]2CN(CCc3c([nH]c4ccccc34)[C@@](C(=O)OC)(c3cc4c(cc3OC)N(C)[C@H]3[C@@](O)(C(=O)OC)[C@H](OC(C)=O)[C@]5(CC)C=CCN6CC[C@]43[C@@H]65)C2)C1` [Vinblastine], in [1], the Inhibitory effect entry is recorded as “toxic”, the antiviral activity result was “no antiviral activity” and the “toxicity in the screen” value is reported as “pronounced toxicity”.

Consider `CC(O)(P(=O)(O)O)P(=O)(O)O` [Etidronic Acid], for which, in [1], the Inhibitory effect result is recorded as “No inhibition” and the “antiviral activity in initial screen” value is listed as “no antiviral activity”.

As for `N[C@@H](CCC(=O)O)C(=O)O` [L-Glutamic Acid], in data set [1], the Inhibitory effect result was “No inhibition” and the “antiviral activity in initial screen” value was “no antiviral activity”.

As for `O=C1CCC(N2C(=O)c3ccccc3C2=O)C(=O)N1` (centres unmarked) [Thalidomide], in [1], the Inhibitory effect entry is given as “No inhibition” and the “antiviral activity in initial screen” value was “no antiviral activity”.

Turning to `CC(C)NCC(O)c1ccc(O)c(O)c1` (centres unmarked) [Isoproterenol], in [1], the Inhibitory effect entry is reported as “toxic”, the antiviral activity entry was “no antiviral activity” and the “toxicity in the screen” value is “pronounced toxicity”.

As to `CN1CCC(=C2c3ccccc3CC(=O)c3sccc32)CC1` [Ketotifen], the “Inhibitory effect (fold inhibition)” value in [1] is given as >10-fold inhibition. Besides, in [1], the “antiviral activity in initial screen” value is given as “able to inhibit infection at doses above 50 μM without causing toxicity”. In addition, the 50% effective concentration (EC50) with PR8 [4] (Influenza A virus, PR8, MDCK) is 5.9 ± 0.2 µM; in data set [6] (setting [9]), 5 to 50 µM; in [7] (Influenza A virus, H3N2, MDCK), 48.5 ± 2 µM; in data set [8] (Influenza A virus, MDCK, pH1N1), 33.7 ± 1.3 µM. The same molecule came in with a CC50 at 24 h in the data set “in vitro” of 291 ± 14.8 µM. Moreover, in [5], the “reduction of viral titers” value came out at 100 fold.

Consider `CCOC(=O)C1=C[C@@H](OC(CC)CC)[C@H](NC(C)=O)[C@@H](N)C1` [Oseltamivir], for which the EC50 with PR8 [4] (Influenza A virus, PR8, MDCK) worked out at 0.005 ± 0.0004 µM; in [7] (Influenza A virus, H3N2, MDCK), 0.05 ± 0.003 µM; in data set [8] (Influenza A virus, MDCK, pH1N1) it was 0.2 ± 0.05 µM. The CC50 at 24 h in the data set “in vitro” came to 470 ± 12.3 µM.

Consider `O=[N+]([O-])[O-].O=[N+]([O-])[O-].O=[N+]([O-])[O-].[Ga+3]` [Gallium nitrate], for which the “effect on lung viral titers” value in the data set on PR8 [2] is on record as “no significant effect”. The “Inhibitory effect (fold inhibition)” value in data set [1] is on record as >10-fold inhibition. For the same molecule, in [1], the “antiviral activity in initial screen” value is reported as “able to inhibit infection at doses above 50 μM without causing toxicity”. Moreover, the figures for the half-maximal effective concentration (EC50) (with PR8 [4] (read-out: EC50); in data set [7] (read-out: EC50); in data set [8] (pH1N1)) were 54.8 ± 2.2 µM, 5.7 ± 0.9 µM and 55.3 ± 2.9 µM, respectively. Besides, in data set [5], the “reduction of viral titers” value was “around 10 fold”. For the same molecule, the CC50 with MDCK cells came to 716 ± 116 µM.
